Like-named read-outs stand apart in the source and are kept apart here.
Assays:
[1] = system: PC-3 (prostate adenocarcinoma cells); assay: Standalone cytotoxicity, MTT assay, PC-3; format: cell-based, human; details: 96 hours treatment, reported as activity range, read-out: PC-3 IC50 (μM ± standard Deviation)
Method: (§1) Human cell lines MDA-MB-231 (breast epithelial adenocarcinoma), HL-60 (promieloblast cells) and PC-3 (prostate adenocarcinoma cells) were purchased from Istituto Zooprofilattico di Brescia (www.bs.izs.it). Reagents for cell culture were purchased from Sigma, unless otherwise indicated. Cells were grown on Plastic Petri dishes (Falcon) in RPMI 1640 medium supplemented with 2 mM L-glutamine, Penicillin (100 U/mL)/Streptomicin (100 μg/mL), 10% Fetal Bovine Serum. A sub-cultivation ratio of 1:4 was used. Cells were maintained at 37° C. in an atmosphere of 95% air and 5% CO2.
(§2) Cells were seeded in 96-well flat bottom cell culture plates at a density of 5000 cells/well in 100 μL of culture medium. HL-60 cells were immediately stimulated with the indicated compounds for 96 hours in the incubator. MDA-MB-231 and PC-3 cells were allowed to adhere for 24 hours. prior to be exposed to the compounds for 96 hours in the incubator. Cells were exposed to the following concentrations of the compounds: 50 nM, 100 nM, 200 nM, 500 nM, 1 μM, 5 μM, 10 μM, 50 μM and 100 μM. Each point was done in triplicate. The cellular growth inhibitory effect of our compounds was evaluated using the MTT assay (Sigma). After 96 hours of treatment, 10 μL of MTT reagent solution (5 mg of MTT powder/mL diluted in Phosphate Buffer Salt saline solution) were added in each well and allowed to react for 3 hours in the incubator. After 3 hours cells were solubilized in Lysis Buffer (10% SDS/0.1% HCl in water, 100 μL for each well) for 24 hours at 37° C. Finally, the absorbance was measured at 570 nm using a multiplate reader. Absorbance values were collected and IC50 values were determined using GraphPad Prism5 software. […]
(§3) After 96 hours of treatment, 10 μl of MTT reagent solution (5 mg of MTT powder/ml diluted in Phosphate Buffer Salt saline solution) were added in each well and allowed to react for 3 hours in the incubator. […] Finally, the absorbance was measured at 570 nm using a multiplate reader. Absorbance values were collected and IC50/IC80 values were determined using GraphPad Prism5 software.

[2] = system: IGROV-1 human ovarian carcinoma xenografted s.c.; details: for TVI %, tumor volume inhibition % in treated over control mice: IGROV-1 s.c., assessed 7 days after last treatment
Method: (§4) All experiments of antitumor activity were carried out using female athymic Swiss nude mice, 8-10 weeks-old (Charles River, Calco, Italy). Mice were maintained in laminar flow rooms keeping temperature and humidity constant. Mice had free access to food and water. Experiments were approved by the Ethics Committee for Animal Experimentation of the Istituto Nazionale Tumori of Milan according to institutional guidelines.
(§5) Chem. Soc. […] The drugs were delivered i.p. in a volume of 10 ml/Kg of body weight.
For subcutaneous (s.c.) growth, exponentially growing tumor cells (5×10^6 cells/mouse) were s.c. injected into the right flank of athymic nude mice. The tumor line was achieved by serial s.c. passages of fragments (about 2×2×6 mm) from regrowing tumors into healthy mice. Groups of five mice bearing bilateral s.c. tumors were employed. Tumor fragments were implanted on day 0 and tumor growth was followed by biweekly measurements of tumor diameters with a Vernier caliper. […] Treatment started three days after tumor implant, when tumors were just palpable. […] The toxicity of the drug treatment was determined as body weight loss and lethal toxicity. Deaths occurring in treated mice before the death of the first control mouse were ascribed to toxic effects. Student t test (two tailed) exact test was used for statistical comparison of tumor volumes in mice.

[3] = molecular target: T1, cIAP2-BIR3 (Homo sapiens, UniProt Q13489); assay: Fluorescence polarization binding, cIAP2 BIR3
T1 construct: 6xHis (C); made in house; host or cells: Escherichia coli BL21(DE3)
T1 sequence (Q13489 237-349): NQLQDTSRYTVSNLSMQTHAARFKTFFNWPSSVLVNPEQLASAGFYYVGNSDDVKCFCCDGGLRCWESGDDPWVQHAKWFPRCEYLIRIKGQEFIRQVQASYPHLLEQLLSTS
Method: (§6) The plasmids were used to transform Escherichia coli strain BL21(DE3). The recombinant proteins were purified using Ni-NTA (His-trap FFcrude, Ge-Healthcare), followed by gel filtration (Superdex 200, Ge-Healthcare). The recombinant proteins were eluted in 20 mM Tris pH 8.0, 250 mM NaCl and 10 mM DTT. Aliquoted proteins were conserved at −80° C.
(§7) The fluorescently-labelled Smac peptide (AbuRPF-K(5-Fam)-N1-12, final concentration of 2 nM), and increasing concentrations of cIAP1- and cIAP2-BIR3 from 0 to 20 μM, were added to an assay buffer consisting of 100 mM potassium phosphate, pH 7.5, 100 μg/ml bovine γ-globulin, 0.02% sodium azide. […] All experiments were performed in black, flat-bottom 96-well microplates (Greiner bio-one). 4-substituted azabicyclo[5.3.0]alkane Smac-mimetics were evaluated for their ability to displace the fluorescent probe from recombinant protein. […] After 15 minutes mixing on a shaker, and 3 hours incubation at room temperature, fluorescent polarization was measured on the Ultra plate reader (Tecan).

[4] = system: HL-60 (promieloblast cells); assay: Standalone cytotoxicity, MTT assay, HL-60; format: cell-based, human; details: reported as activity range, read-out: HL-60 IC50 (μM ± standard Deviation)
Method: as §1, §2, §3

[5] = system: MDA-MB-231 (breast epithelial adenocarcinoma); assay: Standalone cytotoxicity, MTT assay, MDA-MB-231; format: cell-based, human; details: reported as activity range, read-out: MDA-MB-231 IC50 (μM ± standard Deviation)
Method: as §1
Cells were seeded in 96-well flat bottom cell culture plates at a density of 5000 cells/well in 100 μL of culture medium. HL-60 cells were immediately stimulated with the indicated compounds for 96 hours in the incubator. MDA-MB-231 and PC-3 cells were allowed to adhere for 24 hours. prior to be exposed to the compounds for 96 hours in the incubator. Cells were exposed to the following concentrations of the compounds: 50 nM, 100 nM, 200 nM, 500 nM, 1 μM, 5 μM, 10 μM, 50 μM and 100 μM. Each point was done in triplicate. The cellular growth inhibitory effect of our compounds was evaluated using the MTT assay (Sigma). After 96 hours of treatment, 10 μL of MTT reagent solution (5 mg of MTT powder/mL diluted in Phosphate Buffer Salt saline solution) were added in each well and allowed to react for 3 hours in the incubator. After 3 hours cells were solubilized in Lysis Buffer (10% SDS/0.1% HCl in water, 100 μL for each well) for 24 hours at 37° C. Finally, the absorbance was measured at 570 nm using a multiplate reader. Absorbance values were collected and IC50 values were determined using GraphPad Prism5 software. The experiments were repeated twice.
After 96 hours of treatment, 10 μl of MTT reagent solution (5 mg of MTT powder/ml diluted in Phosphate Buffer Salt saline solution) were added in each well and allowed to react for 3 hours in the incubator. After 3 hours cells were solubilized in Lysis Buffer (10% SDS/0.1% HCl in water, 100 μl for each well) for 24 hours at 37° C. Finally, the absorbance was measured at 570 nm using a multiplate reader. Absorbance values were collected and IC50/IC80 values were determined using GraphPad Prism5 software.

[6] = system: IGROV-1 human ovarian carcinoma xenografted i.p.; assay: Ovarian tumor i.p. xenograft, survival; format: in vivo, athymic nude mice; details: 5 mg/kg, qdx4-5/wx2-3w, IGROV-1 i.p.
Method: as §4, §5
The IGROV-1 tumor was adapted to grow in the peritoneal cavity (i.p.) and maintained by serial i.p. passages of ascitic cells into healthy mice. In this tumor model, hemorrhagic ascites with diffuse peritoneal carcinomatosis develops and the animal eventually die. For evaluation of antitumor activity, 2.5×10^6 ascitic cells in 0.2 ml of saline were injected i.p. into mice. Locoregional administration was employed. […] For antitumor activity studies, experimental groups were inspected daily and weighed three times weekly. Prior to impending death, mice were sacrificed by cervical dislocation and day of sacrifice was considered as day of death and the median survival time (MST) was calculated for each group. Antitumor activity was assessed as T/C %, i.e., the ratio of MST in treated mice over that of control mice×100. For statistical analysis, percent survivorship over time was estimated by the Kaplan-Meier product method and compared using the log-rank test.
Treatment started the day after tumor cell inoculation.

[7] = molecular target: T2, human XIAP BIR3 domain (Homo sapiens, UniProt P98170); assay: Fluorescence polarization competitive binding, XIAP BIR3; details: displacement of FITC-SMAC probe from XIAP BIR3-His-tag (60 nM); average of three independent measurements
T2 construct: human XIAP BIR3 domain from residue 241 to 356; made in house; host or cells: Escherichia coli BL21
T2 sequence (P98170 241-356): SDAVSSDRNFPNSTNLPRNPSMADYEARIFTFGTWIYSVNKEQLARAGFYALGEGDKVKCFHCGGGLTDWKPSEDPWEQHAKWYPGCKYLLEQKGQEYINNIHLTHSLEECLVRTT
Method: (§8) Data were analyzed using Prism 4.0 software (Graphpad Software).

[8] = molecular target: T3, cIAP1-BIR3 (Homo sapiens, UniProt Q13490); assay: Fluorescence polarization binding, cIAP1 BIR3; details: displacement of fluorescent probe (2 nM) from cIAP1-BIR3 (10 nM); average of three independent measurements; read-out: cIAP1 IC50(av)
T3 construct: 6xHis (C); made in house; host or cells: Escherichia coli BL21(DE3)
T3 sequence (Q13490 251-363): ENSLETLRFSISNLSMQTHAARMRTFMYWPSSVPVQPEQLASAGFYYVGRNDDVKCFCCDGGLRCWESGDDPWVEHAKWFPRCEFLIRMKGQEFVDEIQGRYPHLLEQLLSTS
Method: as §6, §7

[9] = molecular target: T4, human XIAP linker-BIR2-BIR3 (Homo sapiens, UniProt P98170); assay: Fluorescence polarization competitive binding, XIAP linker-BIR2-BIR3; details: displacement of SMAC-1F probe (1 nM) from XIAP linker-BIR2-BIR3-His-tag (3 nM); average of three independent measurements
T4 construct: human XIAP from residue 124 to 356 (linker-BIR2-BIR3); made in house; host or cells: Escherichia coli BL21
T4 sequence (P98170 124-356): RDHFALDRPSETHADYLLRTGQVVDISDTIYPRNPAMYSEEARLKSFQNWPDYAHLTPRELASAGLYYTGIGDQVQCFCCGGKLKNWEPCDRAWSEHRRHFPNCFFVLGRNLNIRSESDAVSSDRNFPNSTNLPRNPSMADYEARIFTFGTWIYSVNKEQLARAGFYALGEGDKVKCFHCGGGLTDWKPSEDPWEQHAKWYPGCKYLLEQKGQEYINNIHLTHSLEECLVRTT
Method: as §8

[10] = molecular target: XIAP (Homo sapiens, UniProt P98170); details: technical background; read-out: Kd, binding to XIAP; cited from earlier work
XIAP, sequence (P98170 whole entry): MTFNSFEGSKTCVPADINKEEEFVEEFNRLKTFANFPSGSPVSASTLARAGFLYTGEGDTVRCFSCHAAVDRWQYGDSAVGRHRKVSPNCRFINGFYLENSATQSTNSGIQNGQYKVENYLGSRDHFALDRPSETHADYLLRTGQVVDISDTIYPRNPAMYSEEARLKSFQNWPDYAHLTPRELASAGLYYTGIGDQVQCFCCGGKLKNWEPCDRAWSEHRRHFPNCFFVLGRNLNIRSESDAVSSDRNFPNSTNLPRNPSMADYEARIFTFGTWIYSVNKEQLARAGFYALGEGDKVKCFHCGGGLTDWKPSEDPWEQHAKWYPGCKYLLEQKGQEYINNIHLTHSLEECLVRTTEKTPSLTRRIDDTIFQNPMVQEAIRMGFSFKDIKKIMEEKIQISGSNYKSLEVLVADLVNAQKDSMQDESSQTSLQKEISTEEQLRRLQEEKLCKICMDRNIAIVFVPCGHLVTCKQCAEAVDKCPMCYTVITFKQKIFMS

[11] = Homo sapiens, MDA-MB-231, 96 hours treatment
[12] = displacement of fluorescent probe (2 nM) from cIAP2 (25 nM), average of three independent measurements, read-out: cIAP2 IC50(av)

Row | IC50 [7] [nM] | IC50 [3, 12] [nM] | IC50 [8] [nM] | IC50 [9] [nM] | Molecule | TVI %, tumor volume inhibition % in treated over control mice ([2]; i.p., 5 mg/kg, qdx4-5/wx3w) [%] | IC50 [5, 11] [µM] | MST, median survival time [6] [days] | Range of the days of death [6] [days] | other results
1 |  |  |  |  | CC[C@H](NC)C(=O)N[C@@H]1C(=O)N2[C@@H](CC[C@@H]1CO)CC[C@H]2C(=O)N[C@@H](c1ccccc1)c1cn(CCCCc2ccc(CCCCn3cc([C@@H](NC(=O)[C@@H]4CC[C@@H]5CC[C@H](CO)[C@H](NC(=O)[C@H](CC)NC)C(=O)N54)c4ccccc4)nn3)cc2)nn1 [Compound 28a] | 66 | < 1 | 36 | 28 to 56 | IC50 ([1]; Homo sapiens): > 50 µM; Tolerability ([2]; i.p., 5 mg/Kg, qdx5/wx3): well tolerated; Tox, dead/treated mice ([2]; i.p., 5 mg/kg, qdx4-5/wx3w): 0/4; BWL %, body weight loss % induced by treatment ([2]; i.p., 5 mg/kg, qdx4-5/wx3w, the highest change is reported): 2%; IC50 [3]: 2.5 nM; IC50 ([4]; Homo sapiens, HL-60, 96 hours treatment): < 1 µM
2 | 26.7 | 2.9 | 2.6 | 0.8 | CC[C@H](NC)C(=O)N[C@@H]1C(=O)N2[C@@H](CC[C@@H]1CO)CC[C@H]2C(=O)N[C@H](C(=O)NCCCCNc1c(NCCCCNC(=O)[C@@H](NC(=O)[C@@H]2CC[C@@H]3CC[C@H](CO)[C@H](NC(=O)[C@H](CC)NC)C(=O)N32)c2ccccc2)c(=O)c1=O)c1ccccc1 [Compound 30b] |  | 10 to 50 |  |  | 
3 | 31.1 | 0.3 | 3.2 | 0.11 | CC[C@H](NC)C(=O)N[C@@H]1C(=O)N2[C@@H](CC[C@@H]1CNC(=O)CCc1cn(CCOCCOCCOCCNC(=O)[C@@H](NC(=O)[C@@H]3CC[C@@H]4CC[C@H](CO)[C@H](NC(=O)[C@H](CC)NC)C(=O)N43)c3ccccc3)nn1)CC[C@H]2C(=O)NC(c1ccccc1)c1ccccc1 [Compound 34a] |  | 10 to 50 |  |  | 
4 |  |  |  |  | mature Smac protein: "second mitochondria-derived activator of caspases"; "N-terminal mitochondrial targeting sequence that is proteolytically removed during maturation to the mature polipeptide" (protein, UniProt Q9NR28 22-239, looked up) Diablo IAP-binding …: LCVPVVANFKKRCFSELIRPWHKTVTIGFGVTLCAVPIAQKSEPHSLSSEALMRRAVSLVTDSTSTFLSQTTYALIEAITEYTKAVYTLTSLYRQYTSLLGKMNSEEEDEVWQVIIGARAEMTSKHQEYLKLETTWMTAVGLSEMAAEAAYQTGADQASITARNHIQLVKLQVEEVHQLSRKAETKLAEAQIEELRQKTQEEGEERAESEQEAYLRED |  |  |  |  | Kd [10]: 420 nM

Row | Molecule | IC50 [7] [nM] | IC50 [3, 12] [nM] | IC50 [8] [nM] | IC50 [9] [nM] | TVI %, tumor volume inhibition % in treated over control mice ([2]; i.p., 5 mg/kg, qdx4-5/wx3w) [%] | IC50 [5, 11] [µM] | MST, median survival time [6] [days] | Range of the days of death [6] [days] | other results
5 | CN[C@@H](C)C(=O)N[C@H]1CCCC[C@H]2CC[C@@H](C(=O)N[C@@H](c3ccccc3)c3cn(CCCCc4ccc(CCCCn5cc([C@@H](NC(=O)[C@@H]6CC[C@@H]7CCCC[C@H](NC(=O)[C@H](C)NC)C(=O)N76)c6ccccc6)nn5)cc4)nn3)N2C1=O [SM164, reference compound] |  |  | 0.46 |  | 0 |  | 37 | 24 to 49 | IC50 [1]: 10 to 50 µM; BWL %, body weight loss % induced by treatment ([2]; mouse, in vivo, ip, 5 mg/kg): 5%; IC50 ([4]; 96 hours treatment): < 1 µM; IC50 ([5]; 96 hours treatment): < 1 µM

Source: patent US9321808B2, “Homo- and heterodimeric SMAC mimetic compounds as apoptosis inducers” (BioNTech AG, priority 2012, dated 2016)
